# Results published in patent US9955691B2, “Macrocyclic picolinamides as fungicides” (DOW AGROSCIENCES LLC, priority 2014, dated 2018).
# Like-named read-outs stand apart in the source and are kept apart here.
# Tests used:
# [1] = tested on: Mycosphaerella graminicola; Anamorph: Septoria tritici; test: Fungicidal activity: Leaf Blotch of Wheat (SEPTTR); assay type: in vivo; details: Zymoseptoria tritici, wheat leaf blotch; for pest or weed control at 121.5 g/ha: Low Volume (121.5 g/H); for pest or weed control at 100 µg/mL: High Volume (100 ppm)
# In short: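 Compounds were dissolved in acetone, diluted with nine volumes of water containing 110 ppm Triton X-100, and sprayed to run-off on first-leaf Yuma wheat seedlings inoculated with Septoria tritici spores before or after treatment. Plants were held in a dew chamber, then a 20° C. greenhouse. Percent control was derived from disease severity relative to untreated plants.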
# Puccinia triticina = test: Fungicidal activity: Wheat Brown Rust (PUCCRT); assay type: in vivo; details: for pest or weed control at 121.5 g/ha: Low Volume (121.5 g/H); for pest or weed control at 100 µg/mL: High Volume (100 ppm)
# In short: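 Wheat seedlings (Yuma, first leaf) sprayed to run-off with compound in acetone/water with Triton X-100, inoculated with Puccinia triticina before or after treatment. Held overnight in dark dew at 22° C, then greenhouse at 24° C; percent disease control from severity versus untreated plants.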
# [2] = 24 h, 1 Day Protectant, read-out: SEPTTR 1 DP disease control
# [3] = 72 h, 3 Day Curative, read-out: SEPTTR 3 DC disease control
# [4] = 24 h, 1 Day Protectant, read-out: PUCCRT 1 DP disease control
# [5] = 72 h, 3 Day Curative, read-out: PUCCRT 3 DC disease control
smiles,measurement,setting,value
C=C[C@@H]1[C@@H](Cc2ccccc2)COC[C@H](NC(=O)c2nccc(OC)c2O)C(=O)O[C@H]1C [compound 118],melting point,,57 to 63 °C
C[C@@H]1OC(=O)[C@@H](NC(=O)OC(C)(C)C)COC[C@H](Cc2ccccc2)[C@H]1Cc1ccc(OC(F)(F)F)cc1 [compound 223],melting point,,47 to 51 °C
C[C@@H]1OC(=O)[C@@H](NC(=O)OC(C)(C)C)COC[C@H](c2ccccc2)[C@H]1c1ccccc1 [compound 204],melting point,,63 to 71 °C
C[C@@H]1OC(=O)[C@@H](NC(=O)OC(C)(C)C)COC[C@H](Cc2ccc(Cl)cc2)[C@H]1C1CCCC1 [compound 237],melting point,,113 to 115 °C
C[C@@H]1OC(=O)[C@@H](N)COC[C@H](CCCc2ccccc2)[C@H]1CCc1ccccc1.Cl,melting point,,147 to 151 °C
C=C[C@@H]1[C@@H](Cc2ccccc2)COC[C@H](NC(=O)OC(C)(C)C)C(=O)O[C@H]1C [compound 205],melting point,,134 to 138 °C
CC(C)C[C@@H]1[C@@H](Cc2ccc(C(F)(F)F)cc2)COC[C@H](NC(=O)OC(C)(C)C)C(=O)O[C@H]1C [compound 229],melting point,,115 to 118 °C
C[C@@H]1OC(=O)[C@@H](NC(=O)OC(C)(C)C)COC[C@H](Cc2ccc(C(F)(F)F)cc2)[C@H]1Cc1ccc(OC(F)(F)F)cc1 [compound 225],melting point,,50 to 56 °C
"C[C@@H]1OC(=O)[C@@H](NC(=O)OC(C)(C)C)COC[C@H](Cc2ccccc2)[C@H]1Cc1ccccc1 [Cmpd. 203, tert-butyl ((3S,7R,8R,9S)-7,8-dibenzyl-9-methyl-2-oxo-1,5-dioxonan-3-yl)carbamate]",melting point,,41 to 45 °C
C[C@@H]1OC(=O)[C@@H](N)COC[C@H](CC2CCCC2)[C@H]1CC1CCCC1.Cl,melting point,,164 to 167 °C
C[C@@H]1OC(=O)[C@@H](N)COC[C@H](Cc2ccccc2)[C@H]1COc1ccccc1.Cl,melting point,,209 to 214 °C
C[C@@H]1OC(=O)[C@@H](NC(=O)OC(C)(C)C)COC[C@H](CC2CCCC2)[C@H]1CC1CCCC1 [compound 215],melting point,,95 to 99 °C
CCOCC(=O)OCOc1c(OC)ccnc1C(=O)N[C@H]1COC[C@H](CCC(C)C)[C@@H](Cc2ccccc2)[C@H](C)OC1=O [compound 45],pest or weed control at 121.5 g/ha,[1]; [2],> 70%
same,pest or weed control at 121.5 g/ha,[1]; [3],> 70%
same,pest or weed control at 121.5 g/ha,Puccinia triticina; [4],> 70%
same,pest or weed control at 121.5 g/ha,Puccinia triticina; [5],> 70%
CCC[C@H]1COC[C@H](NC(=O)c2nccc(OC)c2OC(C)=O)C(=O)O[C@@H](C)[C@@H]1c1ccccc1 [compound 98],pest or weed control at 121.5 g/ha,[1]; [2],> 70%
same,pest or weed control at 121.5 g/ha,[1]; [3],> 70%
same,pest or weed control at 121.5 g/ha,Puccinia triticina; [4],> 70%
same,pest or weed control at 121.5 g/ha,Puccinia triticina; [5],> 70%
COc1ccnc(C(=O)N[C@H]2COC[C@H](Cc3ccc(Cl)cc3)[C@@H](CC(C)C)[C@H](C)OC2=O)c1OCOC(C)=O [compound 73],pest or weed control at 121.5 g/ha,[1]; [2],> 70%
same,pest or weed control at 121.5 g/ha,[1]; [3],> 70%
same,pest or weed control at 121.5 g/ha,Puccinia triticina; [4],> 70%
same,pest or weed control at 121.5 g/ha,Puccinia triticina; [5],< 70%
CCOCC(=O)OCOc1c(OC)ccnc1C(=O)N[C@H]1COC[C@H](Cc2ccc(Cl)cc2)[C@@H](CC(C)C)[C@H](C)OC1=O [compound 74],pest or weed control at 121.5 g/ha,[1]; [2],> 70%
same,pest or weed control at 121.5 g/ha,[1]; [3],> 70%
same,pest or weed control at 121.5 g/ha,Puccinia triticina; [4],> 70%
same,pest or weed control at 121.5 g/ha,Puccinia triticina; [5],< 70%
CCCC[C@@H]1[C@@H](Cc2ccccc2)COC[C@H](NC(=O)c2nccc(OC)c2OC(C)=O)C(=O)O[C@H]1C [compound 15],pest or weed control at 100 µg/mL,[1]; [2],> 70%
same,pest or weed control at 121.5 g/ha,[1]; [2],> 70%
same,pest or weed control at 100 µg/mL,[1]; [3],> 70%
same,pest or weed control at 121.5 g/ha,[1]; [3],> 70%
same,pest or weed control at 100 µg/mL,Puccinia triticina; [4],> 70%
same,pest or weed control at 121.5 g/ha,Puccinia triticina; [4],> 70%
same,pest or weed control at 100 µg/mL,Puccinia triticina; [5],> 70%
same,pest or weed control at 121.5 g/ha,Puccinia triticina; [5],> 70%
